# Tests used:
# [1] = system: patient-derived NSCLC organoid; experiment: Organoid drug response assay (CellTiter-Glo); format: cell-based, human; conditions: three days of drug incubation; three patient models
# Procedure: All procedures performed involving human participants were approved by the Ethics Committee of Shanghai Jiao Tong University School of Medicine and were in accordance with the ethical standards of Helsinki Declaration (as revised in 2013). All the donors signed an informed consent form. Freshly excised tumor samples from patients were kept in MACS tissue storage solution (Miltenyi) at 4° C. upon harvest. Tumor tissues were minced into small pieces on ice, then incubated with 0.001% DNase (Sigma-Aldrich, MO, USA), 1 mg/mL collagenase/dispase (Roche, IN, USA), 200 U/mL penicillin, […], and […] amphotericin B (2% antibiotics, Sigma) in DMEM/F12 medium (Thermofisher) at 37° C. for three hours with gentle agitation and intermittent resuspension. Thereafter, the digested tissue suspension was repeatedly triturated via pipetting and passed through a 70 μm filter. The strained suspension was centrifuged at 112×g for three minutes, and red blood cells were lysed using lysis buffer (00443357, Thermofisher) for five minutes. […]
# The organoids cultured over two weeks were harvested and dissociated using 1× TrypLe (Thermofisher). […] The plates were agitated for 30 minutes at room temperature (10° C.-30° C.) prior to measuring luminescence.
# [2] = system: peripheral blood mononuclear cells (PBMC); experiment: Toxicity on patients' PBMC; format: cell-based, human
# Procedure: Then, treating organoids in presence of 5 μg/mL pembrolizumab, in combination with either of these agents (AZD3965 at 0.1 μM, GSK2837808A at 1 μM, and WZHAb10 at 0.0006 μM) and each PBMC (FIGS. 18, 19 and 20). IgG was used as control in FIG. 18, IgG and/or vehicle were used as control in FIGS. 19-20.
# WT MCT1/BSG-2 (mouse) = WT MCT1/BSG-2 (mouse) (UniProt P53986)
# WT MCT4/BSG-2 (mouse) = WT MCT4/BSG-2 (mouse) (UniProt P57787)
Molecule,anti-proliferative effect of single agent on organoids [1],effect on T cell growth (PBMC) ([2]; at 0.1 μM),effect on T cell growth (PBMC) ([2]; at 1 μM),"transport activity (H+ influx, H+-pyruvate symport in proteoliposomes) (WT MCT1/BSG-2 (mouse)) [%]","transport activity (H+ influx, H+-L-lactate symport in proteoliposomes) (WT MCT4/BSG-2 (mouse)) [%]"
Cc1[nH]nc(C(F)(F)F)c1Cc1sc2c(c1C(=O)N1C[C@](C)(O)CO1)c(=O)n(C)c(=O)n2C(C)C [AZD3965],moderate anti-proliferative effect,little effects on T cell growth,–,–,–
COc1ncc(-c2ccc3c(Nc4cc(Oc5cc(F)cc(F)c5)cc(C(=O)O)c4)c(S(=O)(=O)NC4CC4)cnc3c2)c(OC)n1 [GSK2837808A],moderate anti-proliferative effect,–,little effects on T cell growth,–,–
"WZHAb10 (antibody, V domains shown) VH: QVQLVQSGAEVKKPGASVKVSCKASGYTFTNYWIHWVRQAPGQGLEWMGMIHPNSGSINYNEKFKTRVTMTRDTSTSTVYMELSSLRSEDTAVYYCARVGSGSLDYWGQGTLVTVSS VL: EIVLTQSPATLSLSPGERATLSCRASQSISDYLHWYQQKPGQAPRLLIKYVSQSISGIPARFSGSGSGTYFTLTISSLEPEDVAVYYCQNGEEAPYTFGQGTKLEIKR",–,–,–,75,50

# Reference: patent US12357691B2, “Antibodies specifically binding to CD147 and uses thereof” (Alphelix Biotech Co., Ltd., priority 2022, dated 2025)
